# What was measured:
# [1] = system: Panc-1 cells; test: Panc-1 cell proliferation (MTS); assay type: cell-based
# Protocol: Panc-1 pancreatic adenocarcinoma cells (1.0×10^3 cells/well) were cultured in the presence or absence of S100P (100 nM) and with or without cromolyn (100 μM), and cell proliferation was analyzed at 24, 48, and 72 hours. Means and 95% confidence intervals of three independent experiments performed in triplicate are shown. *, P=0.001, S100P alone versus S100P+cromolyn.
# Panc-1 cells were plated at 1.0×10^3 cells/well and treated with platelet-derived growth factor (10 ng/mL) with or without cromolyn (100 μM), and cell proliferation was analyzed after 48 hours. Means and 95% confidence intervals of three independent experiments performed in triplicate are shown. *, P=0.004 PDGF and P=0.022 cromolyn+PDGF versus control.
# (§1) Growth of Panc-1 and BxPC3 pancreatic adenocarcinoma cells was analyzed using MTS reagent (Promega, Madison, Wis.) according to the manufacturer's directions. Purified S100P (100 nM final concentration) with or without cromolyn (100 μM final concentration) was added to Panc-1 cells. Only cromolyn (0-100 μM) was added to BxPC-3 cells, which express endogenous S100P. For both cell models, 1.0×10^3 cells/well were plated in 96-well culture dishes. Cells were treated with S100P, PDGF, or cromolyn, or a combination, followed immediately by treatment with either S100P or PDGF. MTS (20 μL per well) was added to cells at various times, and the mixture was incubated for 1 hour at 37° C. Samples were then read at 490 nm (as O.D. units) on a uQuant-Microplate Spectrophotometer (Bio-Tek Services Inc., Richmond, Va.). The assay was performed three times in triplicate.
# [2] = system: BxPC-3 cells; test: BxPC-3 cell proliferation (MTS); assay type: cell-based; conditions: 48 hours; for basal cell proliferation, mean: 0 μM mean 1.2
# Protocol: as §1, with “BxPC-3 cells were plated at 1.0×10^3 cells/well and treated with 0 μM, 1 μM, 10 μM, and 100 μM of cromolyn, and cell proliferation was analyzed after 48 hours. Means and 95% confidence intervals of three independent experiments performed in triplicate are shown. *, P=0.002; t, P<0.001 versus control. Growth” for “Growth”
# [3] = system: Panc-1 cells; test: Panc-1 matrigel invasion assay; assay type: cell-based
# Protocol: FIGS. 2A-2D show the effect of cromolyn on pancreatic cancer cell invasion. Panc-1 and BxPC-3 cells were plated in Bio-coat matrigel and control chambers and cultured in serum-free culture media. After 24 hours non-invaded cells in the upper chamber were removed, and cells that invaded onto the lower surface of the membrane were counted from five adjacent fields. […] Data are expressed as the percent invasion through the matrigel matrix and membrane relative to migration through the control membrane. Means and 95% confidence intervals from three independent experiments performed in triplicate are shown. Two-tailed two-sample (unpaired) Student's t-tests were used to determine P values.
# Panc-1 and BxPC-3 cells were seeded in BIOCOAT matrigel invasion chambers and in control chambers without matrigel (Becton-Dickinson, Bedford, Mass.) according to the manufacturer's protocol. Panc-1 cells were seeded with S100P (100 nM) with or without cromolyn (100 μM), and BxPC-3 cells were seeded with or without cromolyn (1-100 μM). Briefly, 2.0×10^5 cells in 300 μL top solution (serum-free media) were added to each chamber and allowed to invade matrigel for 24 hours at 37° C. in a 5% CO2 atmosphere. The non-invading cells on the upper surface of membrane were removed from the chambers with a cotton swab, and the invading cells on the lower surface of the membrane were fixed and stained using a Diff-Quick stain kit (Becton Dickinson, Bedford, Mass.). After two washes with water, the chambers were allowed to air dry. The numbers of invading cells in five adjacent microscope fields per membrane were counted at 20× magnification to obtain the average number of cells per field. Data are expressed as the percent invasion through the matrigel matrix and membrane relative to the migration through the control membrane. The assays were performed three times.
# [4] = system: MPanc-96 cells; test: MPanc-96 cell apoptosis by flow cytometry, alone or with gemcitabine; assay type: cell-based, Human; conditions: alone and in conjunction with gemcitabine 10 μM; 100 and 1000 nM; 72 hours
# Protocol: FIG. 11 compares the effects of cromolyn and C5 alone and in combination with gemcitabine on MPanc-96 cell apoptosis. MPanc-96 cells were treated with cromolyn or C5 (100 and 1000 nM) with (+) or without (−) gemcitabine (10 μM). Apoptosis was analyzed after 72 hours by flow cytometry.
# [5] = system: SKOV3 ovarian cells; test: SKOV3 ovarian cell viability with taxol; assay type: cell-based; conditions: taxol 5 μM, cromolyn 10 μM, 48 hours
# Protocol: SKOV3 ovarian cells were plated and treated with taxol (5 μM) either in the presence or absence of cromolyn (10 μM) for 48 hours. Cell viability was analyzed after 48 hours. *, P<0.05.
# [6] = system: SW480 colon cells; test: SW480 colon cell proliferation; assay type: cell-based; conditions: cromolyn 100 μM, up to three days
# Protocol: SW480 colon cells were cultured for up to three days in the presence of cromolyn (100 μM), and cell proliferation was analyzed. *, P<0.05.
compound,measurement,setting,value
"O=C(O)c1cc(=O)c2c(OCC(O)COc3cccc4oc(C(=O)O)cc(=O)c34)cccc2o1 [cromolyn, disodium 1,3-bis[(2′-carboxylatochromon-5′-yl)oxy]-2-hydroxypropane]",serum stimulated cell proliferation,[1]; Panc-1,did not influence
same,"cell proliferation, cromolyn treatment alone","[1]; Panc-1, no S100P",no effect
same,PDGF stimulated cell growth,"[1]; Panc-1, PDGF 10 ng/mL with cromolyn 100 μM, 48 hours",nor did it inhibit growth stimulation caused by PDGF
same,"cell proliferation, mean","[1]; Panc-1, S100P 100 nM + cromolyn 100 μM",0.56 MTS units
same,"cell proliferation, difference S100P versus S100P+cromolyn","[1]; Panc-1, S100P 100 nM, cromolyn 100 μM",0.37 MTS units
same,"basal cell proliferation, difference versus 0 μM",[2]; cromolyn 10 μM,0.5 MTS units
same,"basal cell proliferation, mean",[2]; cromolyn 10 μM,0.7 MTS units
same,"basal cell proliferation, difference versus 0 μM",[2]; cromolyn 100 μM,0.6 MTS units
same,"basal cell proliferation, mean",[2]; cromolyn 100 μM,0.6 MTS units
same,basal cell invasion,"[3]; Panc-1, no S100P",did not reduce
same,"cells invaded, mean","[3]; Panc-1, S100P 100 nM + cromolyn 100 μM, 24 hours",9.4%
same,"cells invaded, difference S100P versus S100P+cromolyn","[3]; Panc-1, S100P 100 nM, cromolyn 100 μM, 24 hours",48.6%
same,MPanc-96 cell viability,[4],inhibit
same,cell killing effect of taxol on ovarian cancer cells,[5],increased the cell killing effect of taxol
same,growth of SW480 cells,[6],reduced growth
